# According to US9169217B2, “Arylalkyl esters of 4-amino-6-(substituted phenyl)-picolinates and 6-amino-2-(substituted phenyl)-pyrimidinecarboxylates and their use as selective herbicides for crops” (Dow AgroSciences LLC, priority 2011, dated 2015):
# Experiments:
# [1] = system: Echinochloa crus-galli (L.) P.BEAUV. (barnyardgrass); test: In-water applied herbicidal activity in transplanted paddy rice (Example 17); format: in vivo; settings: Echinochloa crus-galli, 504 h, rice cropping systems, in-water applied (paddy), 21 DAA, may represent multiple trials, read-out: Visual Injury (%) ECHCG; for pest or weed control at 17.5 g/ha: 17.5 g ae/ha; for pest or weed control at 35 g/ha: 35 g ae/ha
# Protocol: (§1) Weed seeds or nutlets of the desired test plant species were planted in puddled soil (mud) prepared by mixing a non-sterilized mineral soil (28 percent silt, 18 percent clay, and 54 percent sand, with a pH of about 7.3 to 7.8 and an organic matter content of about 1.0 percent) and water at a ratio of 100 kilograms (kg) of soil to 19 liters (L) of water. The prepared mud was dispensed in 250 mL aliquots into 480 mL non-perforated plastic pots with a surface area of 91.6 cm^2 leaving a headspace of 3 cm in each pot. Rice seeds were planted in Sun Gro MetroMix 306 planting mixture, which typically has a pH of 6.0 to 6.8 and an organic matter content of about 30 percent, in plastic plug trays. Seedlings at the second or third leaf stage of growth were transplanted into 650 mL of mud contained in 960 mL non-perforated plastic pots with a surface area of 91.6 cm^2 four days prior to herbicide application. The paddy was created by filling the 3 cm headspace of the pots with water. When required to ensure good germination and healthy plants, a fungicide treatment and/or other chemical or physical treatment was applied. The plants were grown for 4-14 d in a greenhouse with an approximate 14-h photoperiod which was maintained at about 29° C. during the day and 26° C. during the night. Nutrients were added as Osmocote (17:6:10, Nitrogen:Phosphorus:Potassium (N:P:K)+minor nutrients) at 2 grams (g) per cup. Water was added on a regular basis to maintain the paddy flood, and supplemental lighting was provided with overhead metal halide 1000-Watt lamps as necessary. The plants were employed for testing when they reached the second or third true leaf stage.
# (§2) Treatments consisted of esters of compounds 1-4, 6-33, 35-39, 41 and 42 and A-G. Compound A is methyl 4-amino-3-chloro-6-(4-chloro-3-ethoxy-2-fluorophenyl)-5-fluoropicolinate; compound B is methyl 4-amino-3-chloro-6-(4-cyclopropylphenyl)-5-fluoropicolinate; compound C is methyl 4-amino-3-chloro-6-(2,4-dichloro-3-methoxyphenyl)picolinate; compound D is methyl 6-amino-2-(4-chloro-2-fluoro-3-methoxyphenyl)-5-vinylpyrimidine-4-carboxylate; compound E is methyl 4-amino-3-chloro-6-(4-chloro-2-fluoro-3-methoxyphenyl)-5-fluoropicolinate; compound F is methyl 6-amino-2-(4-chloro-2-fluoro-3-methoxyphenyl)-5-methoxypyrimidine-4-carboxylate; and compound G is methyl 4-amino-3-chloro-6-(4-chloro-2-fluoro-3-methoxyphenyl)picolinate. Weighed amounts of technical grade compounds were placed in individual 120 mL glass vials and were dissolved in 20 mL of acetone to obtain concentrated stock solutions. […] The concentrated stock solutions obtained were diluted with 20 mL of an aqueous mixture containing 2.5% Agri-dex crop oil concentrate (v/v). The final application solutions contained 1.25% (v/v) Agri-dex crop oil concentrate. Generally, multiple concentrations were tested utilizing the same stock solution. Applications were made by injecting an appropriate amount of the application solution into the aqueous layer of the paddy. Control plants were treated in the same manner with the solvent blank.
# (§3) The treated plants and control plants were placed in a greenhouse as described above and water was added as needed to maintain a paddy flood. After 3 weeks the condition of the test plants, compared with that of the untreated plants, was determined visually and scored on a scale of 0 to 100 percent where 0 corresponds to no injury and 100 corresponds to complete kill.
# (§4) By applying the well-accepted probit analysis as described by J. Berkson in Journal of the American Statistical […], 48, 565 (1953) and by D. Finney in “Probit Analysis” Cambridge University Press (1952), the data gathered can be used to calculate GR50 and GR80 values, which are defined as growth reduction factors that correspond to the effective dose of herbicide required to kill or control 50 percent or 80 percent, respectively, of a target plant.
# [2] = system: Scirpus juncoides ROXB. (Japanese bulrush); test: as above; format: in vivo; settings: Schoenoplectiella juncoides, 504 h; rice cropping systems, in-water applied (paddy), 17.5 g ae/ha, 21 DAA; may represent multiple trials; read-out: Visual Injury (%) SCPJU
# Protocol: as §1, §2, §3, §4
# [3] = system: Cyperus difformis L. (small-flower flatsedge); test: Postemergence foliar-applied herbicidal activity in direct seeded rice (Example 16); format: in vivo; settings: post-emergence, 504 h, rice cropping systems, foliar-applied, 8.75 g ae/ha, 21 DAA, may represent multiple trials, read-out: Visual Injury (%) CYPDI
# Description: (§5) Seeds or nutlets of the desired test plant species were planted in a soil matrix prepared by mixing a loam soil (43 percent silt, 19 percent clay, and 38 percent sand, with a pH of about 8.1 and an organic matter content of about 1.5 percent) and river sand in an 80 to 20 ratio. The soil matrix was contained in plastic pots with a surface area of 139.7 cm^2. When required to ensure good germination and healthy plants, a fungicide treatment and/or other chemical or physical treatment was applied. The plants were grown for 10-17 d in a greenhouse with an approximate 14-h photoperiod which was maintained at about 29° C. during the day and 26° C. during the night. Nutrients and water were added on a regular basis and supplemental lighting was provided with overhead metal halide 1000-Watt lamps as necessary. The plants were employed for testing when they reached the second or third true leaf stage.
# (§6) Treatments consisted of esters of compounds 1-4, 6-8, 10, 11, 13-16, 20-31, 35, 38, 41 and 42 and A-E. Compound A is methyl 4-amino-3-chloro-6-(4-chloro-3-ethoxy-2-fluorophenyl)-5-fluoropicolinate; compound B is methyl 4-amino-3-chloro-6-(4-cyclopropylphenyl)-5-fluoropicolinate; compound C is methyl 4-amino-3-chloro-6-(2,4-dichloro-3-methoxyphenyl)picolinate; compound D is methyl 6-amino-2-(4-chloro-2-fluoro-3-methoxyphenyl)-5-vinylpyrimidine-4-carboxylate; and compound E is methyl 4-amino-3-chloro-6-(4-chloro-2-fluoro-3-methoxyphenyl)-5-fluoropicolinate. Weighed amounts of technical grade compounds were placed in 25 mL glass vials and dissolved in a volume of 97:3 v/v acetone-DMSO to obtain 12× stock solutions. […] The concentrated stock solutions were added to the spray solutions so that the final acetone and DMSO concentrations were 16.2% and 0.5%, respectively. Spray solutions were diluted to the appropriate final concentrations with the addition of 10 mL of an aqueous mixture of 1.5% (v/v) Agri-dex crop oil concentrate. Generally, multiple concentrations of spray solutions were formulated and tested utilizing the same stock solution. The final spray solutions contained 1.25% (v/v) Agri-dex crop oil concentrate. Compound requirements are based upon a 12 mL application volume at a rate of 187 L/ha. Spray solutions were applied to the plant material with an overhead Mandel track sprayer equipped with 8002E nozzles calibrated to deliver 187 L/ha over an application area of 0.503 square meters (m^2) at a spray height of 18 inches (43 cm) above average plant canopy height. Control plants were sprayed in the same manner with the solvent blank.
# as §3, with “watered by sub-irrigation” for “water was added as needed”, “prevent wash-off of the test compounds.” for “maintain a paddy flood.”, “weeks,” for “weeks”
# as §4
# [4] = system: Scirpus juncoides ROXB. (Japanese bulrush); test: as above; format: in vivo; settings: Schoenoplectiella juncoides, post-emergence, 504 h; rice cropping systems, foliar-applied, 8.75 g ae/ha, 21 DAA; may represent multiple trials; read-out: Visual Injury (%) SCPJU
# Description: as §5, §6
# as §3, with “watered by sub-irrigation” for “water was added as needed”, “prevent wash-off of the test compounds.” for “maintain a paddy flood.”, “weeks,” for “weeks”
# as §4
# [5] = system: Echinochloa crus-galli (L.) P.BEAUV. (barnyardgrass); test: Postemergence foliar-applied herbicidal activity in direct seeded rice (Example 16); format: in vivo; settings: rice cropping systems, 8.75 g ae/ha, 21 DAA, may represent multiple trials
# Description: as §5, §6
# as §3, with “watered by sub-irrigation” for “water was added as needed”, “prevent wash-off of the test compounds.” for “maintain a paddy flood.”, “weeks,” for “weeks”
# as §4
# [6] = system: Echinochloa colonum (L.) LINK (junglerice); test: as above; format: in vivo; settings: Echinochloa colona, post-emergence, 504 h, rice cropping systems, 8.75 g ae/ha, 21 DAA, may represent multiple trials, read-out: Visual Injury (%) ECHCO
# Description: as §5, §6
# as §3, with “watered by sub-irrigation” for “water was added as needed”, “prevent wash-off of the test compounds.” for “maintain a paddy flood.”, “weeks,” for “weeks”
# as §4
# [7] = system: Fimbristylis miliacea (L.) VAHL (globe fringerush); test: In-water applied herbicidal activity in transplanted paddy rice (Example 17); format: in vivo; settings: rice cropping systems, in-water applied (paddy), 35 g ae/ha, 21 DAA; may represent multiple trials
# Protocol: as §1, §2, §3, §4
SMILES,pest or weed control at 17.5 g/ha [1] [%],pest or weed control at 17.5 g/ha [2] [%],pest or weed control at 8.75 g/ha [3] [%],pest or weed control at 8.75 g/ha [4] [%],melting point [°C],pest or weed control at 35 g/ha [1] [%],Visual Injury (%) ECHCG [5] [%],pest or weed control at 8.75 g/ha [6] [%],Visual Injury (%) FIMMI [7] [%]
COc1c(Cl)ccc(-c2nc(C(=O)OCc3ccc([N+](=O)[O-])cc3)c(Cl)c(N)c2F)c1F [Compound 21],10,80,100,100,207 to 208,,,,
COc1c(Cl)ccc(-c2nc(C(=O)OCCc3ccc(Cl)cc3)c(Cl)c(N)c2F)c1F [Compound 22],0,40,100,90,107 to 108,,,,
COc1c(Cl)ccc(-c2nc(C(=O)OCc3cccc(F)c3)c(Cl)c(N)c2F)c1F [Compound 23],60,95,100,100,160 to 161,,,,
COc1c(Cl)ccc(-c2nc(C(=O)OCc3ccc(F)cc3)c(Cl)c(N)c2F)c1F [Compound 24],70,100,100,100,143 to 144,,,,
COc1c(Cl)ccc(-c2nc(C(=O)OCc3ccccc3F)c(Cl)c(N)c2F)c1F [Compound 25],10,90,100,100,169,,,,
COc1c(Cl)ccc(-c2nc(C(=O)OCc3ccccc3C(F)(F)F)c(Cl)c(N)c2F)c1F [Compound 26],20,100,100,100,133 to 134,,,,
COc1c(Cl)ccc(-c2nc(C(=O)OCc3ccc(C(C)C)cc3)c(Cl)c(N)c2F)c1F [Compound 27],10,80,100,100,75 to 76,,,,
COc1c(Cl)ccc(-c2nc(C(=O)OCc3ccc4ccccc4c3)c(Cl)c(N)c2F)c1F [Compound 28],10,50,100,100,142 to 143,,,,
COC(=O)c1cccc(COC(=O)c2nc(-c3ccc(Cl)c(OC)c3F)c(F)c(N)c2Cl)c1 [Compound 29],10,60,100,100,144 to 145,,,,
COc1c(Cl)ccc(-c2nc(C(=O)OCc3ccc(Cl)cc3C)c(Cl)c(N)c2F)c1F [Compound 30],50,85,99,0,167 to 168,,,,
COc1c(Cl)ccc(-c2nc(C(=O)OCc3ccc(SC)cc3)c(Cl)c(N)c2F)c1F [Compound 31],50,85,100,100,145,,,,
"C=Cc1c(N)nc(-c2ccc(Cl)c(OC)c2F)nc1C(=O)OCc1ccccc1 [Compound 35, benzyl 6-amino-2-(4-chloro-2-fluoro-3-methoxyphenyl)-5-vinylpyrimidine-4-carboxylate]",,,,,119 to 121,76,95,90,
"COc1ccc(COC(=O)c2nc(-c3ccc(Cl)c(OC)c3F)cc(N)c2Cl)cc1 [Compound 36, 4-methoxybenzyl 4-amino-3-chloro-6-(4-chloro-2-fluoro-3-methoxyphenyl)picolinate]",,,,,,,,,100
"C=Cc1c(N)nc(-c2ccc(Cl)c(OC)c2F)nc1C(=O)OC [D, methyl 6-amino-2-(4-chloro-2-fluoro-3-methoxyphenyl)-5-vinylpyrimidine-4-carboxylate, reference compound]",,,,,,54,87,79,
